We go through 15 compounds from article PMC11661628, “Cannabis sativa extracts inhibit LDL oxidation and the formation of foam cells in vitro, acting as potential multi-step inhibitors of atherosclerosis development” (PLOS ONE, 2024).

Series [1] relates to J774.1 cells. The series is described as follows: Quantitation of oxLDL endocytosis (DiI-oxLDL spectrofluorometry). Format: cell-based, murine. The following applies: for effect of Ca2+ chelation on DiI-oxLDL internalized: BAPTA-AM 5–20 μM, EGTA 4 mM (S8 Fig); for effect on oxLDL uptake by the cells (dose-response, Fig 4) / ED50: DiI-oxLDL 10 μg mL^-1, 24 h; for ED50: oxLDL internalization, NE non-effective.

Series [2] has as its system J774.1 cells. As to the kind of experiment: Cellular toxicity, MTT reduction. The conditions noted are these: 24 h; for LD50: MTT viability curves; for effect on cell viability and metabolism (MTT): explored range 3–30 μM. As to the method:
Cell viability was determined by the mitochondrial-dependent reduction of 3-[4,5-dimethylthiazole-2-yl]-2,5-diphenyltetrazolium bromide (MTT, Merck KGaA) to formazan. […] A control condition with vehicle alone (0.2% DMSO) was also added to each experiment. The medium was replaced with DMEM containing MTT (0.1 mg mL^-1) and the cells were incubated at 37° C for 4 h. After removing the media, formazan crystals were dissolved in DMSO, and the absorbance was registered using the Varioskan plate reader at 560 nm. […] Therapeutic indexes (TI) were calculated as the ratios between the […].
Background: Tetrazolium assays rely on reduction of a dye to a coloured formazan, in cell work by metabolically active cells.

Series [3] has as its system LDL. Details: method as in PMID 33123676. The conditions noted are these: already described; cited from earlier work.
Series [4] deals with GPR55. The conditions noted are these: cited from earlier work.
For series [5], the system named is rat TRPV1. Details: method as in PMID 15615864. The conditions noted are these: cited from earlier work.
Series [6] deals with human TRPV1. Details: method as in PMID 15615864. The conditions noted are these: cited from earlier work.
Series [7] addresses CB2. The conditions noted are these: cited from earlier work.
For series [8], the target named is TRPV4. The conditions noted are these: read-out: Ki TRPV4; cited from earlier work.
The target in series [9] is CB1. The conditions noted are these: cited from earlier work.
For series [10], the target named is TRPV1. The following applies: cited from earlier work.
Where [11] appears, read: S2 Table, ref THC [1–5], CBD [3–6], AEA [2,3,5,8,9], AM251 [5,10–16], AM630 [14,15,17,18], ML184 [22–24], CID16020046 [25], read-out: Ki or IC50, GPR55.
The mark [12] stands for this setting: Fig 5 A-C, antagonist alone 5 µM, 24 h, replicates n=1-3.
Where [13] appears, read: Fig 4, 0.28 µM, 24 h, replicates n=1-3.
Setting [14] is: Fig 4, 1.39 µM, 24 h, replicates n=1-3.
Where [15] appears, read: Fig 4, 2.79 µM, 24 h, replicates n=1-3.
The mark [16] stands for this setting: Fig 4, 8.37 µM, 24 h, replicates n=1-3.
Setting [17] is: Fig 4, 13.95 µM, 24 h, replicates n=1-3.
Setting [18] is: Fig 4, 0.32 µM, 24 h, replicates n=1-3.
[19] abbreviates: Fig 4, 1.59 µM, 24 h, replicates n=1-3.
The mark [20] stands for this setting: Fig 4, 3.18 µM, 24 h, replicates n=1-3.
The mark [21] stands for this setting: Fig 4, 12.72 µM, 24 h, replicates n=1-3.

Values joined by “and” are separate entries in the source; they are usually repeats but may differ in a detail not shown here. Equal entries are not always repeated. Where two headings read alike, the source gives them in different places. Some results are limits rather than exact numbers.

Regarding `Cc1ccc(-c2n[nH]c3c2C(c2cccc(O)c2)N(c2ccc(C(=O)O)cc2)C3=O)cc1` (stereo not drawn) [CID16020046, 4-[4,6-dihydro-4-(3-hydroxyphenyl)-3-(4-methylphenyl)-6-oxopyrrolo[3,4-c]pyrazol-5(1H)-yl]benzoic acid], the “effect of the antagonist on DiI-oxLDL uptake” value (from here on “effect … on DiI-oxLDL uptake”) in series [1] is listed as “did not affect DiI-oxLDL uptake”.
Turning to `O=C(O)CN(CCOCCOCCN(CC(=O)O)CC(=O)O)CC(=O)O` [EGTA], in series [1] (6 h), the “effect of Ca2+ chelation on DiI-oxLDL internalized” value was “negligible”.
As for `C=C(C)[C@@H]1CCC(C)=C[C@H]1c1c(O)cc(CCCCC)cc1O` [CBD, cannabidiol], in series [2], the LD50 came out at 23 ± 1 µM. Besides, the “protection of LDL from oxidation” value in [3] is given as “lack of protection”. Also, the Ki in [4] (setting [11]) is 354 nM. Moreover, in series [1], the “effect on oxLDL uptake by the cells (dose-response, Fig 4)” value (“effect on oxLDL uptake by the cells” for short) is given as “inhibited oxLDL endocytosis” and the ED50 came out at 25000 ± 5000 nM.
`CC(C)(C)c1ccc(/C=C/C(=O)Nc2ccc3c(c2)OCCO3)cc1` [AMG9810, 2E-N-(2,3-dihydro-1,4-benzodioxin-6-yl)-3-[4-(1,1-dimethylethyl)phenyl]-2-propenamide]: the IC50 is 85.6 nM in series [5] and 24.5 nM in [6]. Further, the “effect … on DiI-oxLDL uptake” value in series [1] was “significant inhibition of DiI-oxLDL uptake”.
With `Cc1c(C(=O)NN2CCCCC2)nn(-c2ccc(Cl)cc2Cl)c1-c1ccc(I)cc1` [AM251, 1-(2,4-Dichlorophenyl)-5-(4-iodophenyl)-4-methyl-N-1-piperidinyl-1H-pyrazole-3-carboxamide], in [7], the inhibition constant (Ki) was 124 nM.
Consider `CC(C)C[C@H](NC(=O)c1cc2ccccc2s1)C(=O)N1CCN(C(=O)[C@H](CO)NS(=O)(=O)c2ccc(Cl)cc2Cl)CC1` [GSK1016790A, N-[(1S)-1-[[4-[(2S)-2-[[(2,4-dichlorophenyl)sulfonyl]amine]-3-hydroxy-1-oxopropyl]-1-piperazinyl]carbonyl]-3-methylbutyl]benzo [b]thiophene-2-carboxamide], for which the Ki in series [8] is 5 nM. The “increase of DiI-oxLDL uptake” value in series [1] is given as ~ 30%.
Take `Cc1c(C(=O)Nc2cccc(C(F)(F)F)c2)cc(-c2ccccc2)n1CCCN1CCOCC1` [HC067047, 2-methyl-1-(3-morpholin-4-ylpropyl)-5-phenyl-N -[3-(trifluoromethyl)phenyl]pyrrole-3-carboxamide]: the Ki in series [8] is 17 to 133 nM. Moreover, in series [1], the “effect … on DiI-oxLDL uptake” value is listed as “did not affect DiI-oxLDL uptake”.
With `COc1ccc(C(=O)c2c(C)n(CCN3CCOCC3)c3cc(I)ccc23)cc1` [AM630], the Ki in series [4] (setting [11]) is 1500 nM. Moreover, in [7] (read-out: Ki CB2), the inhibitory constant (Ki) is 31 nM. The “effect of the antagonist on the inhibition of oxLDL uptake by the extracts” value in [1] is listed as “unable to counteract the inhibitory effect”. Besides, in [1] (setting [12]), the “DiI-oxLDL” value is 5.170 µg/mL and 6.331 µg/mL and 3.777 µg/mL; the “µg DiI-oxLDL/mg protein” value was 10.904 µg DiI-oxLDL/mg protein and 13.538 µg DiI-oxLDL/mg protein and 10.952 µg DiI-oxLDL/mg protein.
`COc1cc(CNC(=O)CCCCC=CC(C)C)ccc1O` [Capsaicin, 8-methyl-N-vanillyl-6-nonenamide]: the “increase of DiI-oxLDL uptake” value in [1] (agonist 50 μM, 6 h, absence of extracts) is reported as ~ 15%.
Take `C=C(C)[C@@H]1CCC(C)=C[C@H]1c1c(O)cc(CCCCC)c(C(=O)O)c1O` [CBDA, cannabidiolic acid]: the Ki in [9] is 626 nM. In [2], the LD50 is greater than 40 µM; the “effect on cell viability and metabolism (MTT)” value is given as “no effect”. For the same compound, in series [3], the “protection of LDL from oxidation” value is “lack of protection”. Moreover, in series [7], the Ki is 813 nM. In [1], the “effect on oxLDL uptake by the cells” value was “inhibited oxLDL endocytosis” and the ED50 was 18000 ± 3000 nM.
On to `CCCCC/C=C\C/C=C\C/C=C\C/C=C\CCCC(=O)NCCO` [AEA, N-arachidonoylethanolamine], for which the results for the Ki in series [9] and in [10] were 31 to 252 nM and 270 nM, respectively. In addition, in series [1], the “effect on oxLDL uptake by the cells” value is listed as “unable to prevent the uptake of oxLDL”.
Consider `Cc1cccc(N2CCN(C(=O)c3cc(S(=O)(=O)N(C)C)ccc3N3CCCC3)CC2)c1C` [ML184, 3-[[4-(2,3-dimethylphenyl)-1-piperazinyl]carbonyl]-N,N-dimethyl-4-(1-pyrrolidinyl) benzenesulfonamide], for which the Ki in series [9] is greater than 32000 nM; in [4] (read-out: Ki GPR55), 260 nM; in series [7] it was greater than 32000 nM. In series [1], the “DiI-oxLDL” value is 0.641 µg/mL and 0.711 µg/mL and 0.735 µg/mL. For the same compound, in [1], the “increase of DiI-oxLDL uptake” value is ~ 15%. Moreover, the “µg DiI-oxLDL/mg protein” value in series [1] is 1.308 µg DiI-oxLDL/mg protein and 1.400 µg DiI-oxLDL/mg protein and 1.366 µg DiI-oxLDL/mg protein.
Regarding `CC(=O)OCOC(=O)CN(CC(=O)OCOC(C)=O)c1ccccc1OCCOc1ccccc1N(CC(=O)OCOC(C)=O)CC(=O)OCOC(C)=O` [BAPTA-2AM], the “effect of Ca2+ chelation on DiI-oxLDL internalized” value in series [1] (6 h) is “very considerable impact”.
Turning to `CCCCCc1cc2c(c(O)c1C(=O)O)C1C=C(C)CCC1C(C)(C)O2` (stereo not drawn) [THCA, Δ^9-tetrahydrocannabinolic acid], the Ki is 1290 nM in series [9] and 1650 nM in [7]. Besides, in series [2], the “effect on cell viability and metabolism (MTT)” value is reported as “no effect”. In addition, the “protection of LDL from oxidation” value in series [3] is “lack of protection”. The “effect on oxLDL uptake by the cells” value in series [1] is “inhibited oxLDL endocytosis”. For the same compound, the “DiI-oxLDL” value in [1] (setting [13]) was 5.657 µg/mL and 5.8008 µg/mL and 5.782 µg/mL; in [1] (setting [14]) it was 5.437 µg/mL and 5.452 µg/mL and 5.506 µg/mL; in series [1] (setting [15]) it was 5.849 µg/mL and 5.071 µg/mL and 5.133 µg/mL; in series [1] (setting [16]), 3.515 µg/mL and 3.542 µg/mL and 3.49 µg/mL; in series [1] (setting [17]) it was 2.689 µg/mL and 2.817 µg/mL and 2.8328 µg/mL. In addition, the “µg DiI-oxLDL/mg protein” value in series [1] (setting [13]) was 10.7513 µg DiI-oxLDL/mg protein and 10.8025 µg DiI-oxLDL/mg protein and 11.0708 µg DiI-oxLDL/mg protein; in series [1] (setting [14]), 9.919 µg DiI-oxLDL/mg protein and 9.956 µg DiI-oxLDL/mg protein and 10.007 µg DiI-oxLDL/mg protein; in series [1] (setting [15]) it was 9.9098 µg DiI-oxLDL/mg protein and 9.139 µg DiI-oxLDL/mg protein and 9.494 µg DiI-oxLDL/mg protein; in [1] (setting [16]), 6.46 µg DiI-oxLDL/mg protein and 6.3952 µg DiI-oxLDL/mg protein and 6.189 µg DiI-oxLDL/mg protein; in [1] (setting [17]), 4.86 µg DiI-oxLDL/mg protein and 5.27 µg DiI-oxLDL/mg protein and 5.206 µg DiI-oxLDL/mg protein. Besides, in series [1], the ED50 is 12000 ± 1000 nM.
Consider `CCCCCc1cc(O)c2c(c1)OC(C)(C)[C@@H]1CCC(C)=C[C@@H]21` [THC, Δ^9-tetrahydrocannabinol], for which the LD50 in series [2] was determined as 20 ± 1 µM. Also, the “protection of LDL from oxidation” value in series [3] is recorded as “protection”. In series [4] (setting [11]), the Ki was 8 to 8.9 nM. Also, the “DiI-oxLDL” value was 4.013 µg/mL and 4.084 µg/mL and 4.342 µg/mL in series [1]; 5.502 µg/mL and 5.314 µg/mL and 5.656 µg/mL in series [1] (setting [18]); 5.307 µg/mL and 5.178 µg/mL and 5.296 µg/mL in series [1] (setting [19]); 4.772 µg/mL and 4.841 µg/mL and 4.891 µg/mL in [1] (setting [20]); 2.336 µg/mL and 2.309 µg/mL and 2.423 µg/mL in series [1] (setting [21]). The “µg DiI-oxLDL/mg protein” value in [1] was 10.0784 µg DiI-oxLDL/mg protein and 9.298 µg DiI-oxLDL/mg protein and 9.028 µg DiI-oxLDL/mg protein; in [1] (setting [18]) it was 13.3989 µg DiI-oxLDL/mg protein and 14.1131 µg DiI-oxLDL/mg protein and 13.7901 µg DiI-oxLDL/mg protein; in series [1] (setting [19]), 12.9859 µg DiI-oxLDL/mg protein and 12.4983 µg DiI-oxLDL/mg protein and 12.6611 µg DiI-oxLDL/mg protein; in [1] (setting [20]) it was 12.1912 µg DiI-oxLDL/mg protein and 12.4565 µg DiI-oxLDL/mg protein and 12.6501 µg DiI-oxLDL/mg protein; in series [1] (setting [21]), 6.7266 µg DiI-oxLDL/mg protein and 6.397 µg DiI-oxLDL/mg protein and 6.486 µg DiI-oxLDL/mg protein. Also, in series [1], the “effect on oxLDL uptake by the cells” value is reported as “inhibited oxLDL endocytosis”. In addition, the ED50 in series [1] is 11000 ± 1000 nM.

In general, Ki refers to the dissociation constant of the complex between target and ligand, obtained from inhibition or displacement. The IC50 is the point on the concentration scale where inhibition reaches its midpoint.
